From paper PMC12156367, “Synthesis and Biological Evaluation of Seco-Coumarin/Furoxan Hybrids as Potent Anti-Tumor Agents to Overcome Multidrug Resistance via Multiple Mechanisms” (Molecules, 2025)

Experiments:
[1] = test system: MCF-7/ADR (doxorubicin-resistant human breast cancer cell line); test: In vitro antiproliferative assay (MTT, 48 h), MCF-7/ADR; assay type: cell-based
Excerpt: The MDA-MB-468 cell line was procured from the Cell Bank of the Chinese Academy of Sciences. The MCF-7, MCF-7/ADR, MCF-10A, and MDA-MB-231 cell lines were kindly provided by Professor Xianyi Sha (Fudan University, Shanghai, China). The HUVEC cells were kindly provided by Associate Professor Hulie Zeng (Fudan University, Shanghai, China). The MDA-MB-468, MDA-MB-231, MCF-7, MCF-10A, and HUVEC cells were cultivated in DMEM (Service Biotechnology, China) supplemented with 10% FBS (Capricorn Scientific, Germany) and 1% penicillin-streptomycin (Meilunbio, Dalian, China). For the MCF-7/ADR cells, they were cultured in RPMI-1640 (Service Biotechnology, Wuhan, China), containing 10% FBS and 1% penicillin-streptomycin. Additionally, 500 ng/mL of doxorubicin (Sigma-Aldrich, Saint Louis, MO, USA) was incorporated into the RPMI-1640 culture medium to keep drug resistance. All cell lines were cultured in a humidified incubator at 37 °C with a 5% CO2 atmosphere.
Following harvest during logarithmic growth, cells were plated in 96-well culture plates at an initial density of 5000 cells per well. Incubate the plate overnight at 37 °C to allow the cells to adhere. Following the overnight incubation, introduce the compound at the predetermined concentration into each well, and then return the plate to the incubator for an additional 48 h culture period. After the 48 h treatment, carefully aspirate the drug-containing medium from each well. Subsequently, add 150 μL of 0.5 mg/mL MTT (Beyotime, China) solution to each well. Protect the plate from light and incubate it at 37 °C for 4 h to allow the formation of formazan crystals. Finally, add 150 μL of DMSO (Sinopharm, China) to each well and gently mix to ensure complete dissolution of the formazan crystals. The OD value at 570nm was measured using a microplate reader (Thermo Fisher, Waltham, MA, USA). Cell proliferation inhibition was determined using the following formula:Inhibition (%) = [(ODDMSO − ODcompd.)/(ODDMSO − ODblank)] × 100
GraphPad Prism software 9 was used to calculate the IC50 values. The specific calculation process is as follows: Firstly, we input the experimental data into Prism. The data include the concentrations of the experimental compounds and the corresponding biological response values. For instance, in the cell experiment, we recorded the cell viability values at different drug concentrations. Subsequently, we select the option of “Dose–Response–Nonlinear Regression” in the “Analyze” menu for curve fitting. Generally speaking, we use the model of “[Inhibitor] vs. normalized response—Variable slope”. The Prism software fits the data through the nonlinear least squares method and finds the parameter values that can minimize the difference between the model’s predicted values and the actual data. After completing the curve fitting, the software will directly provide the estimated values and confidence intervals of the IC50 value and other relevant parameters. Meanwhile, it will also offer goodness-of-fit indices, such as the correlation coefficient, to evaluate the quality of the fitting. Through the above method, we can accurately calculate the IC50 value, thereby assessing the intensity of the inhibitory or activating effect of the compound on the biological system.

[2] = test system: LC3 in MCF-7/ADR; test: LC3 immunofluorescence; assay type: cell-based, human; conditions: 9e 10 nM, 24 hours
Method: MCF-7/ADR (1 × 10^5 cells/dish) were seeded in confocal dishes and cultured overnight. After being treated with 9e (20 nM) for 24 h, cells were fixed with 4% paraformaldehyde (Servicebio, Wuhan, China) for 15 min at room temperature. Then, they were washed three times with PBS. Next, cells were blocked with a solution containing 3% BSA (Biofroxx, Einhausen, Germany) and 0.3% Triton X-100 (Beyotime, Shanghai, China) for 1 h at room temperature. The cells were incubated with the primary antibody, which was diluted in 3% BSA and 0.3% Triton X-100, overnight at 4 °C. After three washes with PBS, the cells were incubated with the fluorescent secondary antibody (Alexa Fluor 488 and Alexa Fluor 594, Bioss, Beijing, China) for 1 h at room temperature. Following another three washes with PBS, the cellular DNA was stained with Hoechst 33,342 dye (10 min, 37 °C).

COc1ccc(CCC(=O)c2ccc(OCCOc3no[n+]([O-])c3S(=O)(=O)c3ccccc3)cc2OC)cc1 [Compound 9e, 4-(2-(3-methoxy-4-(3-(4-methoxyphenyl)propanoyl)phenoxy)ethoxy)-3-(phenylsulfonyl)-1,2,5-oxadiazole 2-oxide]
IC50 ([1]; Homo sapiens, NCI/ADR-RES, MTT, 48 h, mean of three determinations): 3.02 nM | Selectivity Ratio IC50(MCF-7)/ IC50(MCF-7/ADR) ([1]; collateral sensitivity): 1402.0 | fluorescence intensity of LC3 [2]: significantly increased
